Data taken from ChEMBL document CHEMBL4000252, “Discovery of N-(2-aminoethyl)-N-benzyloxyphenyl benzamides: New potent Trypanosoma brucei inhibitors” (Bioorg Med Chem, 2017).
Calls of active or inactive are those of the source. The rule behind the calls is not given here.

Legend:
[1] = tested on: Trypanosoma brucei brucei; assay: Antiparasitic activity against Trypanosoma brucei brucei BF427 assessed as growth inhibition after 48 hrs by Alamar blue assay; assay type: functional; details: BF427, 48 h
[2] = Cytotoxicity against human CRL8155 cells assessed as growth inhibition after 48 hrs by Alamar blue assay; assay type: cell-based; details: crl8155, 48 h
HepG2 = assay: Cytotoxicity against human HepG2 cells assessed as growth inhibition after 48 hrs by Alamar blue assay; assay type: cell-based; details: hepg2, 48 h
Liver [3] = assay: Half life in human liver microsomes at 1.5 uM by LC-MS analysis; assay type: ADME, microsome
[4] = Ratio of drug level in brain to plasma in mouse at 5 mg/kg, ip after 1 hr by LC-MS analysis; assay type: ADME, organism-based
[5] = Cmax in mouse at 50 mg/kg, po by LC-MS analysis; assay type: ADME, organism-based; set-up: dose 50 mg/kg, route oral; details: in vivo
[6] = AUC (0 to 8 hrs) in mouse at 50 mg/kg, po by LC-MS analysis; assay type: ADME, organism-based; set-up: dose 50 mg/kg, time < 8 hr, route oral; details: in vivo
[7] = tested on: Trypanosoma brucei rhodesiense; assay: Antiparasitic activity against Trypanosoma brucei rhodesiense STIB900 infected in Swiss-Webster mouse assessed as cure rate at 50 mg/kg, bid administered via oral gavage from day 2 to 5 post infection measured after 60 days by microscopic method relative to control; assay type: functional
Cytochrome P450 3A4 = Cytochrome P450 3A4 (Homo sapiens, UniProt P08684); assay: Inhibition of human CYP3A4; assay type: ADME
Liver [8] = assay: Half life in mouse liver microsomes at 1.5 uM by LC-MS analysis; assay type: ADME, microsome
[9] = tested on: Trypanosoma brucei brucei; assay: Antiparasitic activity against Trypanosoma brucei brucei TREU667 infected in mouse assessed as decrease in parasitemia at 50 mg/kg, bid administered via oral gavage on day 21 to 34 post infection measured on day 34 by microscopic method; assay type: functional, organism-based
[10] = tested on: Trypanosoma brucei brucei; assay: Antiparasitic activity against Trypanosoma brucei brucei TREU667 infected in mouse assessed as decrease in parasitemia at 50 mg/kg, bid administered via oral gavage on day 21 to 34 post infection measured on day 35 by microscopic method; assay type: functional, organism-based
[11] = tested on: Trypanosoma brucei brucei; assay: Antiparasitic activity against Trypanosoma brucei brucei TREU667 infected in mouse assessed as decrease in parasitemia at 50 mg/kg, bid administered via oral gavage on day 21 to 34 post infection measured on day 36 by microscopic method; assay type: functional, organism-based
[12] = tested on: Trypanosoma brucei brucei; assay: Antiparasitic activity against Trypanosoma brucei brucei TREU667 infected in mouse assessed as decrease in parasitemia at 50 mg/kg, bid administered via oral gavage on day 21 to 34 post infection measured on day 46 to 49 by microscopic method; assay type: functional, organism-based
L6 = assay: Cytotoxicity against rat L6 cells assessed as growth inhibition after 48 hrs by Alamar blue assay; assay type: cell-based; details: l6, 48 h
[13] = tested on: Trypanosoma brucei brucei; assay: Antiparasitic activity against Trypanosoma brucei brucei TREU667 infected in mouse assessed as decrease in parasitemia at 50 mg/kg, bid administered via oral gavage on day 21 to 34 post infection measured on day 41 to 42 by microscopic method; assay type: functional, organism-based

Sequence of Cytochrome P450 3A4 (P08684 whole entry): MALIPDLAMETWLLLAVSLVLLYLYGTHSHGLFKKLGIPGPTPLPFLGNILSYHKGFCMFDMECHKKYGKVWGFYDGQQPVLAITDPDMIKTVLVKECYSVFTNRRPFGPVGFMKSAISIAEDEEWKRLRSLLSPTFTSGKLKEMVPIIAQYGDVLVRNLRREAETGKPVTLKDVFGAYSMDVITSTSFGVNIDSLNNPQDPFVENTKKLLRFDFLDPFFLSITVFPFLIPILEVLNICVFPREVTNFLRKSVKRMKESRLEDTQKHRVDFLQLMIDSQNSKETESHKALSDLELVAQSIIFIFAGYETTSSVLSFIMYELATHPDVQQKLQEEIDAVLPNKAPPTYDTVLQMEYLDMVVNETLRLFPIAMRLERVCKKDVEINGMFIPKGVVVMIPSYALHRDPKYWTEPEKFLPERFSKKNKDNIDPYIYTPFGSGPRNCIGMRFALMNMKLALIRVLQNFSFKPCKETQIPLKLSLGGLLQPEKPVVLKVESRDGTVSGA

SMILES | EC50 [1] [nM] | CC50 [2] [µM] | other results
COc1ccccc1C(=O)N(CCN)c1ccc(Cl)cc1 | 2510 |  | 
NCCN(C(=O)c1cccnc1C(F)(F)F)c1ccc(OCc2ccc(Cl)cc2)cc1 | 3 | 8.01 | CC50 (HepG2): 10.2 µM
N#CCN(C(=O)c1ccc(Cl)cc1Cl)c1ccc(Cl)cc1 | > 10000 |  | 
NCCN(C(=O)c1c(Cl)cc(Cl)cc1Cl)c1ccc(Cl)cc1 | 230 | 8.5 | CC50 (HepG2): 21.5 µM
CC(C)c1ccc(N(CCN)C(=O)c2ccc(Cl)cc2Cl)cc1 | 3890 |  | 
NCCN(C(=O)c1ccc(Cl)cc1Cl)c1ccc(Oc2ccccc2Cl)cc1 | 3600 |  | 
NCCN(C(=O)c1ccc(Cl)cc1Cl)c1cccc(Oc2ccc(Cl)cc2)c1 | 2130 |  | 
O=C(c1ccc(Cl)cc1Cl)N(Cc1cccs1)c1ccc(Cl)cc1 | > 10000 |  | 
CC(C)(C)c1ccc(COc2ccc(N(CCN)C(=O)c3ccc(Cl)cc3Cl)cc2)cc1 | 5 | 2.12 | CC50 (HepG2): 3.83 µM
NCCN(C(=O)c1ccc(Cl)cc1Cl)c1ccc(Oc2cccc(Cl)c2)cc1 | 280 |  | 
CC(N)CN(C(=O)c1ccc(Cl)cc1Cl)c1ccc(Cl)cc1 (stereo unspecified) | 1050 |  | 
NCCN(C(=O)c1cccc(Cl)c1Cl)c1ccc(Cl)cc1 | 310 |  | 
Cc1cc(C)cc(COc2ccc(N(CCN)C(=O)c3cccnc3C(F)(F)F)cc2)c1 | 3 | 4.74 | CC50 (HepG2): 6.46 µM
CC(CN)N(C(=O)c1ccc(Cl)cc1Cl)c1ccc(Cl)cc1 (stereo unspecified) | 3560 |  | 
CC(C)c1ccc(COc2ccc(N(CCN)C(=O)c3ccccc3Br)cc2)cc1 | 1 | 1.91 | 
CC(C)c1ccc(COc2ccc(N(CCN)C(=O)c3ccccc3C(F)(F)F)cc2)cc1 | 3 | 2.22 | CC50 (HepG2): 3.99 µM
Cl.NCCN(C(=O)c1ccc(F)cc1C(F)(F)F)c1ccc(OCc2ccc(Cl)cc2)cc1 | 7 | 3.67 | CC50 (HepG2): 7.53 µM; IC50 (Cytochrome P450 3A4): 10 nM; t1/2 (Liver [3]): > 60 min; t1/2 (Liver [8]): > 60 min; BPR [4]: 0.38; Cmax [5]: 4.39 µM; AUC(0-t) at 8 h [6]: 26 µM·h; Activity [7]: 67 - 80%; Activity [9]: Active; Activity [10]: Active; Activity [11]: Active; Activity [12]: inactive
O=C(c1ccc(Cl)cc1Cl)N(Cc1cnc[nH]1)c1ccc(Cl)cc1 | > 10000 |  | 
COc1ccc(N(CCN)C(=O)c2ccc(Cl)cc2Cl)cc1 | > 6000 |  | CC50 (L6): 56.1 µM
NCCN(C(=O)c1cccc(F)c1)c1ccc(Cl)cc1 | 4030 |  | 

SMILES | EC50 [1] [nM] | CC50 [2] [µM] | other results
CNCCN(C(=O)c1ccc(Cl)cc1Cl)c1ccc(Cl)cc1 | 1650 |  | 
NCCN(C(=O)c1ccc(F)cc1C(F)(F)F)c1ccc(Cl)cc1 | 180 | 42.3 | CC50 (HepG2): 37.7 µM
NCCN(C(=O)c1ccc(Cl)cc1Cl)c1ccc(-c2ccccc2)cc1 | 1830 |  | 
NCCN(C(=O)c1c(F)c(F)c(F)c(F)c1F)c1ccc(Cl)cc1 | 540 |  | 
O=C(c1ccc(Cl)cc1Cl)N(CCN1CCOCC1)c1ccc(Cl)cc1 | > 10000 |  | 
O=C(c1ccc(Cl)cc1Cl)N(c1ccc(Cl)cc1)C1CCCNC1 (stereo unspecified) | > 10000 |  | 
NCCN(C(=O)c1ccc(Cl)cc1Cl)c1ccc(C(F)(F)F)cc1 | 1050 |  | CC50 (L6): 13.2 µM
NCCN(C(=O)c1ccc(Cl)cc1Cl)c1ccc(Cl)c(Cl)c1 | 1680 |  | 
CC(C)c1ccc(COc2ccc(N(CCN)C(=O)c3ccccc3[N+](=O)[O-])cc2)cc1 | 1 | 3.03 | 
O=C(c1ccc(Cl)cc1Cl)N(Cc1ccco1)c1ccc(Cl)cc1 | > 10000 |  | 
O=C(c1ccc(Cl)cc1Cl)N(c1ccc(Cl)cc1)C1CCNC1 (stereo unspecified) | 4470 |  | 
NCCN(C(=O)c1ccc(Cl)cc1Cl)c1ccc(Cl)cc1Cl | 510 |  | 
O=C(c1ccc(Cl)cc1Cl)N(Cc1ncc[nH]1)c1ccc(Cl)cc1 | > 10000 |  | 
NCCN(C(=O)c1ccc(Cl)cc1Cl)c1ccc([N+](=O)[O-])cc1 | > 10000 |  | 
NCCN(C(=O)c1ccc(Cl)cc1Cl)c1cccc(Cl)c1 | 3050 |  | 
Cl.NCCN(C(=O)c1ccc(Cl)cc1Cl)c1ccc(F)cc1 |  | 30 | CC50 (HepG2): 40 µM; IC50 (Cytochrome P450 3A4): 74 nM; t1/2 (Liver [8]): > 60 min
NCCN(C(=O)c1ccc(Cl)cc1Cl)c1ccc(F)c(Cl)c1 | 2720 |  | 
NCCN(C(=O)c1ccc(Cl)cc1Cl)c1ccc(Br)cc1 | 330 | 11.5 | CC50 (HepG2): 11 µM
CC(C)c1ccc(COc2ccc(N(CCN)C(=O)c3ccc(F)cc3C(F)(F)F)cc2)cc1.Cl | 2 | 2.83 | CC50 (HepG2): 3.66 µM; t1/2 (Liver [3]): 52 min; BPR [4]: 0.22; Cmax [5]: 1.78 µM; AUC(0-t) at 8 h [6]: 11.1 µM·h; Activity [7]: 33%

Now from value to compound, other results behind:

EC50 [1] [nM] | SMILES | CC50 [2] [µM] | other results
600 | NCCN(C(=O)c1cc(Cl)ccc1Cl)c1ccc(Cl)cc1 |  | 
780 | NCCN(C(=O)c1c(Cl)cccc1Cl)c1ccc(Cl)cc1 | > 50 | CC50 (HepG2): > 50 µM
10 | Cc1cc(C)cc(COc2ccc(N(CCN)C(=O)c3ccccc3C(F)(F)F)cc2)c1.Cl | 2.94 | CC50 (HepG2): 3.94 µM; t1/2 (Liver [3]): > 60 min; BPR [4]: 0.96; Cmax [5]: 1.01 µM; AUC(0-t) at 8 h [6]: 6.51 µM·h; Activity [7]: 33%
310 | NCCN(C(=O)c1ccc(Cl)cc1Cl)c1ccc(Cl)cc1 | 12.5 | CC50 (HepG2): 14.2 µM; IC50 (Cytochrome P450 3A4): 70 nM
7000 | Cc1ccc(C(=O)N(CCN)c2ccc(Cl)cc2)cc1 |  | 
43 | NCCN(C(=O)c1ccc(Cl)cc1Cl)c1ccc(OCc2cccc(Cl)c2)cc1 | 2.38 | CC50 (HepG2): 3.78 µM
2900 | NCCCN(C(=O)c1ccc(Cl)cc1Cl)c1ccc(Cl)cc1 |  | 
13000 | NCCN(C(=O)c1ccccc1)c1ccc(Cl)cc1 |  | 
5 | Cc1cc(C)cc(COc2ccc(N(CCN)C(=O)c3ccc(F)cc3C(F)(F)F)cc2)c1 | 2.24 | CC50 (HepG2): 4.53 µM
520 | Cc1ccccc1C(=O)N(CCN)c1ccc(Cl)cc1 |  | 
330 | NCCN(C(=O)c1ccccc1C(F)(F)F)c1ccc(Cl)cc1 |  | 
170 | NCCN(C(=O)c1ccc(Cl)cc1Cl)c1ccc(Oc2ccc(Cl)cc2)cc1 |  | 
4820 | COc1ccc(C(=O)N(CCN)c2ccc(Cl)cc2)c(OC)c1 |  | 
20 | Cc1cc(C)cc(COc2ccc(N(CCN)C(=O)c3ccc(Cl)cc3Cl)cc2)c1.Cl | 2.45 | CC50 (HepG2): 4.1 µM; IC50 (Cytochrome P450 3A4): 3 nM; t1/2 (Liver [3]): > 60 min; BPR [4]: 0.18; Cmax [5]: 5.9 µM; AUC(0-t) at 8 h [6]: 33.9 µM·h; Activity [7]: 33%; Activity [9]: Active; Activity [13]: inactive
1520 | Cc1ccc(N(CCN)C(=O)c2ccc(Cl)cc2Cl)cc1 | 24.9 | 
> 10000 | CC(=O)NCCN(C(=O)c1ccc(Cl)cc1Cl)c1ccc(Cl)cc1 |  | 
> 10000 | COc1ccc(C(=O)N(CCN)c2ccc(Cl)cc2)cc1 |  | 
1240 | NCCN(C(=O)c1ccc(F)cc1F)c1ccc(Cl)cc1 |  | 

EC50 [1] [nM] | SMILES | CC50 [2] [µM] | other results
> 10000 | NC(=O)CCN(C(=O)c1ccc(Cl)cc1Cl)c1ccc(Cl)cc1 |  | 
> 10000 | NCCN(C(=O)c1ccc(Cl)cc1Cl)c1ccc(N)cc1 | 11 | 
3900 | NCCN(C(=O)c1ccccc1F)c1ccc(Cl)cc1 |  | CC50 (L6): 104 µM
> 10000 | O=C(c1ccc(Cl)cc1Cl)N(c1ccc(Cl)cc1)c1cccnc1 |  | 
2900 | NCCN(C(=O)c1ccc(Cl)c([N+](=O)[O-])c1)c1ccc(Cl)cc1 |  | 
3120 | NCCN(C(=O)c1ccc(Cl)cc1)c1ccc(Cl)cc1 |  | 
> 10000 | O=C(c1ccc(Cl)cc1Cl)N(CCO)c1ccc(Cl)cc1 |  | 
15 | CCc1ccc(COc2ccc(N(CCN)C(=O)c3ccc(Cl)cc3Cl)cc2)cc1 | 2.59 | CC50 (HepG2): 5.6 µM
590 | NCCN(C(=O)c1cccnc1C(F)(F)F)c1ccc(Cl)cc1 |  | 
970 | Cc1ccc(C(=O)N(CCN)c2ccc(Cl)cc2)c(C)c1 |  | 
1080 | NCCN(C(=O)c1cc(Cl)cc(Cl)c1)c1ccc(Cl)cc1 |  | 
> 10000 | CN(C)CCN(C(=O)c1ccc(Cl)cc1Cl)c1ccc(Cl)cc1 |  | 
4010 | NCCN(C(=O)c1ccc(F)cc1)c1ccc(Cl)cc1 |  | 
1200 | NCCN(C(=O)c1cc([N+](=O)[O-])ccc1Cl)c1ccc(Cl)cc1 |  | 
4520 | COc1cc(N(CCN)C(=O)c2ccc(Cl)cc2Cl)ccc1Cl |  | 
440 | NCCN(C(=O)c1ccccc1Cl)c1ccc(Cl)cc1 | > 50 | CC50 (HepG2): > 50 µM
1200 | NCCN(C(=O)c1cccc(Cl)c1)c1ccc(Cl)cc1 |  | 
30 | NCCN(C(=O)c1cccnc1Cl)c1ccc(OCc2ccc(Cl)cc2)cc1 | 11.5 | CC50 (HepG2): 15.2 µM
